Where “and” joins values, the source holds several entries; their conditions need not be identical. Equal entries are not always repeated. Where two headings read alike, the source gives them in different places.
Columns and labels:
[1] = system: Leishmania braziliensis promastigotes; assay: Leishmanicidal activity, promastigote growth (SYBR Green, 72 h); format: cell-based, Leishmania (V.) braziliensis (MHOM/BR/1975/M2904); settings: L. braziliensis promastigotes, max 200 μM
Outline: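 Cultures at 4 × 10^6 parasites/mL were exposed 72 h to serially decreasing compound levels, top 200 μM, with final DMSO 0.5% and medium-only control.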

LbDHODH = LbDHODH (Leishmania braziliensis, UniProt E9AI53); assay: biochemical; settings: for IC50: LbDHODH
Sequence of LbDHODH (E9AI53 entry or part of it): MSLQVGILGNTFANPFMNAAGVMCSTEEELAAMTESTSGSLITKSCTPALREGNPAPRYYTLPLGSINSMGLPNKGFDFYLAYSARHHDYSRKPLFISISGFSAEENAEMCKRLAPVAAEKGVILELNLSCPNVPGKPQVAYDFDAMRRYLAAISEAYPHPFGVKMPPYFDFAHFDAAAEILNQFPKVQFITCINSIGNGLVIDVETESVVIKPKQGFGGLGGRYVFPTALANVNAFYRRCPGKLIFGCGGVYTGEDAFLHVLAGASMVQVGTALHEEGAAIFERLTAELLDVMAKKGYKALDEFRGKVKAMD
Outline: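 Covalent inactivation constant kinact/KI came from linear fitting of early kobs values against inhibitor concentration. Activity followed by A610 (DCIP, DHO substrate) every 3 s over 60 s in Tris pH 8.15/KCl/Triton X-100 buffer, in triplicate; single-point 100 μM screen run at 0 h and after 4-h preincubation.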

[2] = for Raw data: analyte peak area, T=0: 0 min; for Raw data: analyte peak area, T=0 / Raw data: analyte peak area, T=5 / Raw data: analyte peak area, T=10 / Raw data: analyte peak area, T=20 / Raw data: analyte peak area, T=30 / Raw data: analyte peak area, T=60: raw LC-MS area; for Raw data: analyte peak area, T=5: 5 min; for Raw data: analyte peak area, T=10: 10 min; for Raw data: analyte peak area, T=20: 20 min; for Raw data: analyte peak area, T=30: 30 min; for Raw data: analyte peak area, T=60: 60 min
in vitro = assay: in vitro
Outline: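 Compounds at 10 μM final (5% DMSO) in PBS pH 7.4 in donor wells, PBS pH 7.4 acceptor, duplicate; incubated 6 h at room temperature. Donor, acceptor and initial donor (T0) concentrations quantified by LC-MS/MS.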

[3] = Cell viability / cytotoxicity assay (PrestoBlue, 72 h); format: cell-based; settings: human; THP-1 cell line, 72 h, max 200 μM; read-out: CC50
Outline: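 Viability was measured with PrestoBlue fluorescence (560/590 nm, 2 h) after 72 h compound exposure at 37 °C. Test concentrations descended from 200 μM. The THP-1 monocytes had first been differentiated with 150 ng/mL phorbol myristate acetate for 48 h, then rested 24 h.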

[4] = Mouse liver microsome stability in the absence of cofactors (NCF); settings: 60 min, no cofactor (NCF); for Raw data: analyte peak area, T=60 NCF: mouse liver microsomes, raw LC-MS area; for remaining at 1 h, 1 µM: mouse, microsomes, pH 7.4, % Remaining, T=60 NCF
[5] = 0 h, pH 8.15, read-out: LbDHODH Activity±SD (%)
[6] = 4 h, pH 8.15, read-out: LbDHODH Activity±SD (%)
[7] = mouse liver microsomes, replicate 1 (left block)
[8] = mouse liver microsomes, replicate 2 (right block)
[9] = average of n=2, 10µM, PBS pH 7.4/7.4, 6h at room temperature

Q: Which results are given for `O=C1NC(=O)C(=C/C=C/c2ccccc2)C(=O)N1` [2i, (E)-5-(3-Phenylallylidene)pyrimidine-2,4,6(1H,3H,5H)-trione]?
A: EC50 [1]: 10.5 ± 3.5 µM; EC50 ([1]; Leishmania braziliensis): 11 ± 5 µM; activity at 0.0976562 µM (LbDHODH; [5]): 80 ± 11%; activity at 0.195312 µM (LbDHODH; [5]): 83 ± 14%; activity at 0.390625 µM (LbDHODH; [5]): 71 ± 17%; activity at 0.78125 µM (LbDHODH; [5]): 72 ± 12%; activity at 1.5625 µM (LbDHODH; [5]): 17 ± 4%; activity at 3.125 µM (LbDHODH; [5]): 11 ± 3%; activity at 6.25 µM (LbDHODH; [5]): 12 ± 3%; activity at 12.5 µM (LbDHODH; [5]): 4 ± 1%; activity at 25 µM (LbDHODH; [5]): 7 ± 3%; activity at 50 µM (LbDHODH; [5]): 4 ± 1%; activity at 100 µM (LbDHODH; [5]): 6 ± 1%; activity at 200 µM (LbDHODH; [5]): 1 ± 0.1%; activity at 0.0976562 µM (LbDHODH; [6]): 94 ± 19%; activity at 0.195312 µM (LbDHODH; [6]): 68 ± 11%; activity at 0.390625 µM (LbDHODH; [6]): 51 ± 9%; activity at 0.78125 µM (LbDHODH; [6]): 38 ± 9%; activity at 3.125 µM (LbDHODH; [6]): 10 ± 3%; activity at 12.5 µM (LbDHODH; [6]): 4 ± 1%; activity at 50 µM (LbDHODH; [6]): 16 ± 0.5%; activity at 200 µM (LbDHODH; [6]): 3 ± 0.4%; IC50 (LbDHODH; IC50 0 h, without preincubation): 0.9 ± 0.3 µM; IC50 (LbDHODH; IC50 4 h, 4-h preincubation): 0.5 ± 0.1 µM; activity at 100 µM (LbDHODH; read-out: Single dose (0h) % activity): 1.1 ± 0.2%; activity at 100 µM (LbDHODH; read-out: Single dose (4h) % activity): 3 ± 2%; inhibition at 100 µM (LbDHODH; read-out: enzyme inhibition): 97%; Calculated T-half (min), Average ([2]; mouse liver microsomes (CD1 male), 0.4 mg/ml protein, test conc 1 µM, average of n=1 and n=2): 2.7 min; Calculated T-half (min), n=1 ([2]; mouse liver microsomes (CD1 male), 0.4 mg/ml protein, test conc 1 µM, replicate n=1): 2.74 min and 2.7 min; Calculated T-half (min), n=2 ([2]; mouse liver microsomes (CD1 male), 0.4 mg/ml protein, test conc 1 µM, replicate n=2): 2.73 min and 2.7 min; Raw data: analyte peak area, T=0 [2, 7]: 4760; Raw data: analyte peak area, T=0 [2, 8]: 4151; Modified T-half (min), Average ([2]; mouse liver microsomes, 0.4 mg/ml, 1 µM, average, limited to T Half range 3.00 - […]): <3.0 min; Remarks (mouse microsomal stability study) ([2]; mouse liver microsomes, 0.4 mg/ml, 1 µM, NCF = no cofactor control): Very fast metabolism; Low NCF; Raw data: analyte peak area, T=5 [2, 7]: 1438; Raw data: analyte peak area, T=5 [2, 8]: 1160; Raw data: analyte peak area, T=10 [2, 7]: 0; Raw data: analyte peak area, T=10 [2, 8]: 0; Raw data: analyte peak area, T=20 [2, 7]: 0; Raw data: analyte peak area, T=20 [2, 8]: 0; Raw data: analyte peak area, T=30 [2, 7]: 0; Raw data: analyte peak area, T=30 [2, 8]: 0; Raw data: analyte peak area, T=60 [2, 7]: 0; Raw data: analyte peak area, T=60 [2, 8]: 0; mouse liver microsomes T-half ([2]; mouse liver microsomes, NADPH, 1 μM): <3.0 min; recovery at 6 h, 10 µM (in vitro; PAMPA, pH 7.4, % Recovery n=1, replicate n=1, 10µM, PBS pH 7.4/7.4, 6h at room temperature): 14.3%; recovery at 6 h, 10 µM (in vitro; PAMPA, pH 7.4, % Recovery n=2, replicate n=2, 10µM, PBS pH 7.4/7.4, 6h at room temperature): 15.8%; recovery at 6 h, 10 µM (in vitro; PAMPA, pH 7.4, Avg % Recovery, average of n=2, 10µM, PBS pH 7.4/7.4, 6h at room temperature): 15%; Papp (in vitro; PAMPA, pH 7.4, permeability, PBS pH 7.4, 10 μM, 6 h): 5.75 ×10⁻⁶ cm/s; Avg Log Pe (cm/sec) (in vitro; [9]): -5.2 cm/sec and -5.24 cm/sec; Avg Pe (in vitro; [9]): 5.75 ×10⁻⁶ cm/s; LogPe (cm/sec) n1 (in vitro; replicate n1, calculation section, 10µM, PBS pH 7.4/7.4, 6h): -5.25 cm/sec; LogPe (cm/sec) n2 (in vitro; replicate n2, calculation section, 10µM, PBS pH 7.4/7.4, 6h): -5.23 cm/sec; Pe (nm/sec) n=1 (in vitro; replicate n=1, 10µM (5% DMSO), PBS pH 7.4/7.4, 6h at room temperature, LC-MS/MS): 56.6 nm/s and 56.58 nm/s; % Recovery n=1 (in vitro; replicate n=1, 10µM, PBS pH 7.4/7.4, 6h at room temperature): 14.26%; Pe (nm/sec) n=2 (in vitro; replicate n=2, 10µM (5% DMSO), PBS pH 7.4/7.4, 6h at room temperature, LC-MS/MS): 58.4 nm/s and 58.42 nm/s; % Recovery n=2 (in vitro; replicate n=2, 10µM, PBS pH 7.4/7.4, 6h at room temperature): 15.77%; CC50 at 72 h [3]: 193 ± 67 µM; Raw data: analyte peak area, T=60 NCF ([4]; replicate 1 (left block)): 1230; Raw data: analyte peak area, T=60 NCF ([4]; replicate 2 (right block)): 835; remaining at 1 h, 1 µM ([4]; n=1, mouse liver microsomes, n=1): 26.3%; remaining at 1 h, 1 µM ([4]; n=2, mouse liver microsomes, n=2): 19.3%
